Measured values: patent US20230256051A1, “MODIFIED KISSPEPTIN RECEPTOR AGONISTS FOR FATTY LIVER DISEASE” (priority 2020, published 2023)
“Also recorded” adds a separate entry of the source. No end group written: not given here.

What was measured:
[1] = test system: HFD-fed C57BL6/J mice (mouse model of NAFLD); experiment: Diet-induced (HFD) mouse model of NAFLD, TAK-448 infused by subcutaneous mini-osmotic pump; assay type: in vivo; conditions: for liver steatosis / lipid accumulation (H&E, Oil Red O): 0.3 nmol/hour s.c. mini-osmotic pump, vs vehicle (PBS); for liver steatosis / lipid accumulation (H&E, Oil Red O) / insulin resistance / sensitivity (ITT) / glucose tolerance (GTT) / fasting glucose / body weight: 4 weeks; for insulin resistance / sensitivity (ITT) / glucose tolerance (GTT) / fasting glucose / body weight: 0.3 nmol/hour s.c. pump; for insulin resistance / sensitivity (ITT): 6 h fast, insulin 0.5 U/kg i.p.; for glucose tolerance (GTT): 12 h fast, D-glucose 1 g/kg i.p.; for liver triglycerides (TGs) / serum/blood glycerol: endpoint
Description: Animals were treated for 4 weeks unless otherwise indicated and maintained on RD or HFD (total of 10 weeks). Blood glucose measurements were obtained via a small nick in the lateral tail vein using a glucometer (Bayer ContourTM). For glucose tolerance tests, mice were fasted for 12 hours and then injected intraperitoneally with D-glucose (1 g/kg). For the insulin tolerance tests, mice were fasted for 6 hours and then injected intraperitoneally with insulin (0.5 U/kg; Novo NordiskTM). Mice where individually housed in an 8-chamber Clinical Laboratory Animal Monitoring System (CLAMS) with controlled light and feeding. Carbon dioxide output, oxygen update, respiratory exchange ratio (RER), ambulatory movement, and feeding were measured over a 4-day period. Serum insulin levels were measured using the Ultra-Sensitive Mouse Insulin ELISA Kit (Crystal ChemTM). Serum glycerol levels were measured using the Glycerol Assay Kit (SigmaTM). Liver triglycerides were measured using the triglyceride quantification kit (MBLTM international Catalog # JM-K622-500). Free fatty acids were measured using the Free Fatty Acid Quantification Kit (SigmaTM, […]). ALT levels were measured using Liquid ALT (SGPT) Reagent set according to the manufacturer's instructions; cholesterol levels were measured using the Cholesterol set according to the manufacturer's instructions. Immunoblot assays were conducted according to known methods. Mouse liver tissue or primary hepatocytes were homogenized in RIPA lysis buffer containing protease inhibitors and centrifuged at 4° C.; the protein expression in lysates was analyzed by Western blot analysis. Protein was separated using SDS-PAGE and probed using the following antibodies: […] Mouse anti-β actin (1:5000, Thermo Fisher ScientificTM) or anti-vinculin (1:1000, Bio-RadTM) were used for loading control. Protein was then incubated for 1 hour in horseradish peroxidase (HRP)-conjugated rabbit (1:2500, Cell Signaling TechnologyTM) or mouse (1:2500, Cell Signaling TechnologyTM) secondary antibody. Blots were imaged by chemiluminescence with ChemiDocTM Touch imaging system (Bio-RadTM), SuperSignal and West Dura Extended Duration Substrate (Thermo ScientificTM). Protein levels were quantified using Image Lab Software (Bio-RadTM). Total RNA was extracted from cells using the Trizol method. Reverse transcription was done according to manufacturer's instructions using iScript RT Supermix (Bio-RadTM). Gene expression was determined using SYBR green real-time qPCR (RT-qPCR) as described previously using primers shown in Table 7, below. The following primers were purchased from BioRadTM (validated […] primers): Srebpl, Aqp3, Aqp9, Gpat2, Agpat2, Dgat1, Dgat2, Mogat1, Slc2a2, […]1, Sod1, Sod2, Gss, Ucp2, and Gpam. Il-13 was purchased from QiagenTM (QT00099554). Primers for Srebf1, Aqp3, Aqp9, Gpat2, Agpat2, Dgat1, Dgat2, Mogat1, Slc2a2, Lgpat1, Sod1, Sod2, Gss, Ucp2, and Gpam are pre-made and were purchased from BioRadTM. Liver tissue was immediately fixed in 10% neutral formalin after mice were euthanized. Tissue was processed for histology by the Research Pathology Services at Rutgers University. Livers were sectioned into 5 μm thick sections and stained with hematoxylin and eosin. Sections were examined by light microscopy for histopathological changes. C57BL/6J mice fed high fat diet (HFD) or control regular diet (RD) for 12 weeks (4-5/group). TAK-448 (TAK) or Vehicle (Veh i.e., PBS controls) were administered for 4 weeks using an ALZET mini-osmotic pump implanted subcutaneously. Steatosis is shown by hematoxylin and eosin stained mouse livers (lipid accumulation, small white droplets, arrowheads) and by Oil Red O staining of lipids (red dots) in control livers (FIG. 1A). This was prevented in the TAK-448 treated group (FIG. 1A). […]

[2] = cited from earlier work
[3] = test system: primary mouse hepatocytes; experiment: FFA-loaded isolated primary mouse hepatocytes treated with KP-10 or TAK
Description: (n=4) * p < 0.05; One-way ANOVA followed by Dunnett’s post-hoc test.
Primary hepatocytes from mice were isolated according to known methods. Mice (wild-type, C57BL6) or LKO and littermate controls were anesthetized using a ketamine/xylazine mixture (Henry Schein™). The liver was cannulated via the hepatic portal vein and first perfused with 37° C. Kreb’s Ringer solution containing EGTA for 10 minutes. After the first wash, a second Kreb’s Ringer solution containing CaCl2 and LIBERASE (Roche™) was used until the liver was thoroughly perfused. Hepatocytes were filtered through a gauze mesh and resuspended in William’s Media E (Sigma™) with 10 % FBS (Sigma™), 200 nM dexamethasone (Sigma™), 5 mM pen/strep (Fisher™), 2 mM L-glutamine (Fisher™). Cells were plated at a density of 3 × 10^5 on 6-well collagen-coated plates (Sigma™). Hepatocytes were left to recover overnight and then were serum starved for 3 hours prior to experiments. For free fatty acid (FFA) loading, 150 µM oleic and 150 µM palmitic acid was conjugated with 2% BSA (0.3 mM).

[4] = molecular target: T1, KISS1R (Homo sapiens, UniProt Q969F8); set-up: expressed in transfected cells; host or cells: CHO (CHO-KISS1R), membrane preparations; conditions: CHO-KISS1R membrane preparations; means +/- SE; n = 3-5; read-out: IC50 against [125I]KP-54 binding to KISS1R; cited from earlier work
Target sequence in this assay (Q969F8 whole entry, species assumed): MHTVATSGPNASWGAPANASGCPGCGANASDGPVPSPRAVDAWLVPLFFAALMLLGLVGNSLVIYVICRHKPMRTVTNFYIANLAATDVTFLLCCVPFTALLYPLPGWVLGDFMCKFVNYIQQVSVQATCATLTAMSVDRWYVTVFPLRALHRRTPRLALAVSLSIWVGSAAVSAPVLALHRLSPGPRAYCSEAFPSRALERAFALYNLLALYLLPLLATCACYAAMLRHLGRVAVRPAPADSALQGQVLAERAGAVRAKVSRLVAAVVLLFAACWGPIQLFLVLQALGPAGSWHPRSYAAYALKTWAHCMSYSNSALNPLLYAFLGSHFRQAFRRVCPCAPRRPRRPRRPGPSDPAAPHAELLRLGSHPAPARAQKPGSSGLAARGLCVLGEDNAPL

[5] = molecular target: T1, KISS1R; set-up: expressed in transfected cells; host or cells: CHO cells; conditions: [Ca2+] increasing activity, CHO cells expressing human KISS1R; (95% confidence interval); read-out: Agonist activity EC50; cited from earlier work
Target sequence in this assay (Q969F8 whole entry): as the sequence (Q969F8 whole entry, species assumed) above

[6] = test system: healthy men; conditions: cited from earlier work
[7] = HFD livers, RT-qPCR, vs vehicle
[8] = HFD livers, RT-qPCR, vs vehicle, listed as TAK
[9] = HFD livers, western blot, vs vehicle
[10] = HFD mice, vs vehicle, listed as TAK
[11] = HFD mice, 4 weeks treatment, vs vehicle
[12] = HFD mice, 4 weeks treatment, vs vehicle, listed as TAK
[13] = HFD mice, 4 weeks treatment, vs vehicle, listed as TAK-488
[14] = treated vs untreated mice, 4 weeks post treatment

CNC(=N)NCCC[C@H](NC(=O)[C@H](CC(C)C)NC(=O)NNC(=O)[C@H](Cc1ccccc1)NC(=O)[C@@H](NC(=O)[C@H](CC(N)=O)NC(=O)[C@@H]1C[C@@H](O)CN1C(=O)[C@@H](Cc1ccc(O)cc1)NC(C)=O)[C@@H](C)O)C(=O)N[C@@H](Cc1c[nH]c2ccccc12)C(N)=O.O=C(O)C(F)(F)F [TAK-448]
hepatic expression of PPARy, CD36 and MOGAT1 ([1]; HFD livers, RT-qPCR and western blot, vs vehicle, listed as TAK): significantly reduced; also recorded: inhibited
Gpam expression in liver [1, 7]: significantly reduced
Lfabp1 and Gyk1 expression in liver [1, 7]: not significant
Srebf1 expression in liver [1, 7]: not significant
liver markers for oxidative stress (Ucp2, Gss) [1, 7]: lower levels
liver markers for fibrosis (Tgfb1, Timp1) [1, 8]: lower levels; also recorded: reduction
liver pro-inflammatory markers (Ip10, Mcp1) [1, 8]: lower levels; also recorded: reduction
Fasn expression in liver [1, 9]: significant decrease
phosphorylation of AMPK in liver [1, 9]: induced phosphorylation
liver steatosis / lipid accumulation (H&E, Oil Red O) ([1]; HFD mice): prevented
liver steatosis / lipid accumulation (H&E, Oil Red O) ([1]; HFD mice, listed as TAK): protected against; also recorded: suppressed
insulin resistance / sensitivity (ITT) ([1]; HFD mice, vs vehicle): protected against; also recorded: prevented insulin resistance
insulin resistance / sensitivity (ITT) [1, 10]: insulin sensitive; also recorded: improved
glucose tolerance (GTT) ([1]; HFD mice, vs vehicle): prevented glucose intolerance
glucose tolerance (GTT) [1, 10]: glucose tolerant; also recorded: improved
fasting glucose ([1]; HFD mice, vs vehicle): prevented the rise
body weight [1, 10]: significantly lower; also recorded: prevented a gain
fasting glucose [1, 10]: lower
body weight ([1]; HFD mice, vs vehicle, listed as TAK-488): lowering
food intake (CLAMS) ([1]; HFD mice, 4 weeks post treatment, vs vehicle): without a change
food intake (CLAMS) ([1]; HFD mice, 4 weeks post treatment, vs vehicle, listed as TAK): without a change; also recorded: without changing
food intake (CLAMS) ([1]; HFD mice, 4 weeks post treatment, vs vehicle, listed as Takeda-488): no difference
epididymal white adipose tissue (eWAT) [1, 11]: significant decrease
inguinal white adipose tissue (iWAT) [1, 11]: significant decrease
peripheral fat accumulation / adipose mass [1, 11]: protected against
serum ALT [1, 11]: significantly lower
serum/blood free fatty acids (FFA) [1, 11]: prevented
peripheral fat accumulation / adipose mass [1, 12]: lowered
serum TGs [1, 12]: significant decrease; also recorded: reduced
serum cholesterol [1, 12]: significantly lower; also recorded: reduced
serum/blood free fatty acids (FFA) [1, 12]: significantly lower; also recorded: reduced
peripheral fat accumulation / adipose mass [1, 13]: lowering
serum/blood free fatty acids (FFA) [1, 13]: lowering
liver triglycerides (TGs) [1, 11]: prevented
serum/blood glycerol [1, 11]: prevented
liver triglycerides (TGs) [1, 12]: significant decrease
serum/blood glycerol [1, 12]: significantly lower
liver triglycerides (TGs) [1, 13]: lowering
serum/blood glycerol [1, 13]: lowering
heat production (CLAMS) [1, 14]: no differences
respiratory exchange ratio (RER, CLAMS) [1, 14]: no differences
half-life in the blood [2]: 4 h
TG accumulation in FFA loaded hepatocytes ([3]; KP 100 nM or TAK 3 nM, 150 µM palmitate and 150 µM oleate, wild-type hepatocytes, n=4): substantially decreased

ANWNSFGLRF [ANA1]
IC50 [4]: 23.2 ± 14.3 nM

Ac-YNK(Palm-γ-D)NSFGT[Tz]LRY-NH2 [Compound 4**, Decourt et al., 2016 numbering]
EC50 [5]: 2.1 nM

Ac-YNWNSFGT[Tz]LR[Me]Y-NH2 [Compound 7**, Decourt et al., 2016 numbering]
EC50 [5]: 1.5 nM

FNWNSFGLRF [ANA11]
IC50 [4]: 3.5 ± 2.1 nM

Gly-Thr-Ser-Leu-Ser-Pro-Pro-Pro-Glu-Ser-Ser-Gly-Ser-Arg-Gln-Gln-Pro-Gly-Leu-Ser-Ala-Pro-His-Ser-Arg-Gln-Ile-Pro-Ala-Pro-Gln-Gly-Ala-Val-Leu-Val-Gln-Arg-Glu-Lys-Asp-Leu-Pro-Asn-Tyr-Asn-Trp-Asn-Ser-Phe-Gly-Leu-Arg-Phe-NH2 (GTSLSPPPESSGSRQQPGLSAPHSRQIPAPQGAVLVQREKDLPNYNWNSFGLRF-NH2) [Kisspeptin-54]
food intake or appetite [6]: without altering
insulin secretion [6]: enhance

Palm-γ-DYNWNSFGT[Tz]LR[Me]Y-NH2 [Compound 6**, Decourt et al., 2016 numbering]
EC50 [5]: 0.17 nM

Palm-γ-DYNWNSFG′P[Tz]LRY-NH2 [Compound 5**, Decourt et al., 2016 numbering]
EC50 [5]: 0.13 nM

YAWNSFGLRF [ANA2]
IC50 [4]: 145 ± 138 nM

YDWNSFGLRF [ANA12]
IC50 [4]: 29.1 ± 13.5 nM

YNANSFGLRF [ANA3]
IC50 [4]: 2.7 ± 0.7 nM

YNWASFGLRF [ANA4]
IC50 [4]: 43.5 ± 15.5 nM

YNWDSFGLRF [ANA13]
IC50 [4]: 140 ± 60.6 nM

YNWNAFGLRF [ANA5]
IC50 [4]: 0.8 ± 0.4 nM

YNWNSAGLRF [ANA6]
IC50 [4]: 110 ± 89.8 nM

YNWNSFALRF [ANA7]
IC50 [4]: 4.6 ± 1.5 nM

YNWNSFGARF [ANA8]
IC50 [4]: 77.4 ± 10 nM

YNWNSFGIRF [ANA 16]
IC50 [4]: 39.9 ± 8.1 nM

YNWNSFGLKF [ANA17]
IC50 [4]: 9.8 ± 2.6 nM

YNWNSFGLRF [Kisspeptin-10]
expression of de novo lipogenic genes ([3]; primary mouse hepatocytes, treatment for 8 hours, RT-qPCR): reduced
phosphorylation of AMPK and its downstream target ACC ([3]; primary mouse hepatocytes, western blot, n=4): stimulated phosphorylation

YNWNSFGLRH [ANA18]
IC50 [4]: 378 ± 266 nM

YNWNSFGLRY [Compound 2**, Decourt et al., 2016 numbering]
EC50 [5]: 0.057 nM

YNWNSYGLRF [ANA15]
IC50 [4]: 87.5 ± 30.7 nM

YNWNTFGLRF [ANA14]
IC50 [4]: 2.3 ± 1.6 nM
